Key:
[1] = test system: Ehrlich ascites carcinoma cells; conditions: maximum dose level at which mice survive 100 to 200 percent of control survival days; intraperitoneally once a day for 10 days, doses 25 mg/kg to 0.19 mg/kg
[2] = tumour-inoculated ICR/JCL mice, intraperitoneally once a day for 10 days, doses 25 mg/kg to 0.19 mg/kg, Behres-Karber's method, observed up to 50 days

| Structure (SMILES) | ED50 [1] | LD50 [2] |
| --- | --- | --- |
| Cc1c(N)nc([C@H](CC(N)=O)NC[C@H](N)C(N)=O)nc1C(=O)N[C@H](C(=O)N[C@H](C)[C@@H](O)[C@H](C)C(=O)N[C@H](C(=O)NCCc1nc(-c2nc(C(=O)NCCC[S+](C)C)cs2)cs1)[C@@H](C)O)[C@@H](O[C@@H]1O[C@@H](CO)[C@@H](O)[C@H](O)[C@@H]1O[C@H]1O[C@H](CO)[C@@H](O)[C@H](OC(N)=O)[C@@H]1O)c1c[nH]cn1.[Br-] [Compound 1, Bleomycin A2, reference compound] | 0.78 |  |
| Cc1c(N)nc([C@H](CC(N)=O)NC[C@H](N)C(N)=O)nc1C(=O)N[C@H](C(=O)N[C@H](C)[C@@H](O)[C@H](C)C(=O)N[C@H](C(=O)NCCc1nc(-c2nc(C(=O)NCCCCN=C(N)N)cs2)cs1)[C@@H](C)O)[C@@H](O[C@@H]1O[C@@H](CO)[C@@H](O)[C@H](O)[C@@H]1O[C@H]1O[C@H](CO)[C@@H](O)[C@H](OC(N)=O)[C@@H]1O)c1cnc[nH]1 [Compound 3, Bleomycin B2, reference compound] | 0.78 | 7.5 |
| Cc1c(N)nc(C(CC(N)=O)NCC(N)C(N)=O)nc1C(=O)NC(C(=O)NC(C)C(O)C(C)C(=O)NC(C(=O)NCCc1nc(-c2nc(C(=O)NCCN(C)C)cs2)cs1)C(C)O)C(OC1OC(CO)C(O)C(O)C1OC1OC(CO)C(O)C(OC(N)=O)C1O)c1cnc[nH]1 (stereo not shown) [Compound 9, 3-N,N-dimethylaminoethylamino-bleomycin] | 0.39 |  |
| CCN(CC)CCCNC(=O)c1csc(-c2csc(CCNC(=O)C(NC(=O)C(C)C(O)C(C)NC(=O)C(NC(=O)c3nc(C(CC(N)=O)NCC(N)C(N)=O)nc(N)c3C)C(OC3OC(CO)C(O)C(O)C3OC3OC(CO)C(O)C(OC(N)=O)C3O)c3cnc[nH]3)C(C)O)n2)n1 (stereo not shown) [Compound 11, 3,-N,N-diethylaminopropylamino-bleomycin] | 0.19 |  |
| CCCCNCCCNCCCNC(=O)c1csc(-c2csc(CCNC(=O)C(NC(=O)C(C)C(O)C(C)NC(=O)C(NC(=O)c3nc(C(CC(N)=O)NCC(N)C(N)=O)nc(N)c3C)C(OC3OC(CO)C(O)C(O)C3OC3OC(CO)C(O)C(OC(N)=O)C3O)c3cnc[nH]3)C(C)O)n2)n1 (stereo not shown) [Compound 12, 3-(3-N-butyl-aminopropyl)-aminopropylamino-bleomycin] | 0.19 |  |
| Cc1c(N)nc(C(CC(N)=O)NCC(N)C(N)=O)nc1C(=O)NC(C(=O)NC(C)C(O)C(C)C(=O)NC(C(=O)NCCc1nc(-c2nc(C(=O)NCCNCC(C)O)cs2)cs1)C(C)O)C(OC1OC(CO)C(O)C(O)C1OC1OC(CO)C(O)C(OC(N)=O)C1O)c1cnc[nH]1 (stereo not shown) [Compound 13, 2-(2-hydroxypropyl)-aminoethylamino-bleomycin] | 0.39 |  |
| Cc1c(N)nc(C(CC(N)=O)NCC(N)C(N)=O)nc1C(=O)NC(C(=O)NC(C)C(O)C(C)C(=O)NC(C(=O)NCCc1nc(-c2nc(C(=O)NCCCN3CCNCC3)cs2)cs1)C(C)O)C(OC1OC(CO)C(O)C(O)C1OC1OC(CO)C(O)C(OC(N)=O)C1O)c1cnc[nH]1 (stereo not shown) [Compound 14, 3-(piperazino)propylamino-bleomycin] | 0.39 |  |
| Cc1c(N)nc(C(CC(N)=O)NCC(N)C(N)=O)nc1C(=O)NC(C(=O)NC(C)C(O)C(C)C(=O)NC(C(=O)NCCc1nc(-c2nc(C(=O)NCCCNCCCNC(C)c3ccccc3)cs2)cs1)C(C)O)C(OC1OC(CO)C(O)C(O)C1OC1OC(CO)C(O)C(OC(N)=O)C1O)c1cnc[nH]1 (stereo not shown) [Compound 15] | 0.39 | 13.1 |
| Cc1c(N)nc(C(CC(N)=O)NCC(N)C(N)=O)nc1C(=O)NC(C(=O)NC(C)C(O)C(C)C(=O)NC(C(=O)NCCc1nc(-c2nc(C(=O)NCC(C)N)cs2)cs1)C(C)O)C(OC1OC(CO)C(O)C(O)C1OC1OC(CO)C(O)C(OC(N)=O)C1O)c1cnc[nH]1 (stereo not shown) [Compound 16, 2-aminopropylamino-bleomycin] | 0.39 |  |
| CNCCCNC(=O)c1csc(-c2csc(CCNC(=O)C(NC(=O)C(C)C(O)C(C)NC(=O)C(NC(=O)c3nc(C(CC(N)=O)NCC(N)C(N)=O)nc(N)c3C)C(OC3OC(CO)C(O)C(O)C3OC3OC(CO)C(O)C(OC(N)=O)C3O)c3cnc[nH]3)C(C)O)n2)n1 (stereo not shown) [Compound 17, 3-N-methylaminopropylamino-bleomycin] | 0.19 |  |
| Cc1c(N)nc(C(CC(N)=O)NCC(N)C(N)=O)nc1C(=O)NC(C(=O)NC(C)C(O)C(C)C(=O)NC(C(=O)NCCc1nc(-c2nc(C(=O)NCCCN(C)C)cs2)cs1)C(C)O)C(OC1OC(CO)C(O)C(O)C1OC1OC(CO)C(O)C(OC(N)=O)C1O)c1cnc[nH]1 (stereo not shown) [Compound 19, 3-(N,N-dimethyl)-aminopropylamino-bleomycin] | 0.39 |  |
| Cc1c(N)nc(C(CC(N)=O)NCC(N)C(N)=O)nc1C(=O)NC(C(=O)NC(C)C(O)C(C)C(=O)NC(C(=O)NCCc1nc(-c2nc(C(=O)NCCC[N+](C)(C)C)cs2)cs1)C(C)O)C(OC1OC(CO)C(O)C(O)C1OC1OC(CO)C(O)C(OC(N)=O)C1O)c1cnc[nH]1 (stereo not shown) [Compound 20, 3-(N,N,N-trimethyl)-aminopropylamino-bleomycin] | 0.19 |  |
| Cc1c(N)nc(C(CC(N)=O)NCC(N)C(N)=O)nc1C(=O)NC(C(=O)NC(C)C(O)C(C)C(=O)NC(C(=O)NCCc1nc(-c2nc(C(=O)NCCCN(C)CCCN)cs2)cs1)C(C)O)C(OC1OC(CO)C(O)C(O)C1OC1OC(CO)C(O)C(OC(N)=O)C1O)c1cnc[nH]1 (stereo not shown) [Compound 22, 3-[N-methyl-N-(3-aminopropyl)]-aminopropylamino-bleomycin] | 0.19 |  |
| Cc1c(N)nc(C(CC(N)=O)NCC(N)C(N)=O)nc1C(=O)NC(C(=O)NC(C)C(O)C(C)C(=O)NC(C(=O)NCCc1nc(-c2nc(C(=O)NCCCN3CCCC3)cs2)cs1)C(C)O)C(OC1OC(CO)C(O)C(O)C1OC1OC(CO)C(O)C(OC(N)=O)C1O)c1cnc[nH]1 (stereo not shown) [Compound 24, 3-(pyrrolidino)-propylamino-bleomycin] | 0.39 |  |
| Cc1c(N)nc(C(CC(N)=O)NCC(N)C(N)=O)nc1C(=O)NC(C(=O)NC(C)C(O)C(C)C(=O)NC(C(=O)NCCc1nc(-c2nc(C(=O)NCCCN3CCCCC3)cs2)cs1)C(C)O)C(OC1OC(CO)C(O)C(O)C1OC1OC(CO)C(O)C(OC(N)=O)C1O)c1cnc[nH]1 (stereo not shown) [Compound 25, 3-(piperidino)-propylamino-bleomycin] | 0.39 |  |
| Cc1c(N)nc(C(CC(N)=O)NCC(N)C(N)=O)nc1C(=O)NC(C(=O)NC(C)C(O)C(C)C(=O)NC(C(=O)NCCc1nc(-c2nc(C(=O)NCCCN3CCOCC3)cs2)cs1)C(C)O)C(OC1OC(CO)C(O)C(O)C1OC1OC(CO)C(O)C(OC(N)=O)C1O)c1cnc[nH]1 (stereo not shown) [Compound 26, 3-(morpholino)-propylamoni-bleomycin] | 0.78 |  |
| Cc1c(N)nc(C(CC(N)=O)NCC(N)C(N)=O)nc1C(=O)NC(C(=O)NC(C)C(O)C(C)C(=O)NC(C(=O)NCCc1nc(-c2nc(C(=O)NCCCN3CCN(CCCN)CC3)cs2)cs1)C(C)O)C(OC1OC(CO)C(O)C(O)C1OC1OC(CO)C(O)C(OC(N)=O)C1O)c1cnc[nH]1 (stereo not shown) [Compound 28, 3-[1-{4-(3-aminopropyl)}-piperazino]propylamino-bleomycin] | 0.19 |  |
| Cc1c(N)nc(C(CC(N)=O)NCC(N)C(N)=O)nc1C(=O)NC(C(=O)NC(C)C(O)C(C)C(=O)NC(C(=O)NCCc1nc(-c2nc(C(=O)NCCCNCCCN3CCCC3)cs2)cs1)C(C)O)C(OC1OC(CO)C(O)C(O)C1OC1OC(CO)C(O)C(OC(N)=O)C1O)c1cnc[nH]1 (stereo not shown) [Compound 29, 3-(3-pyrrolidinopropyl)-aminopropylamino-bleomycin] | 0.09 |  |
| Cc1c(N)nc(C(CC(N)=O)NCC(N)C(N)=O)nc1C(=O)NC(C(=O)NC(C)C(O)C(C)C(=O)NC(C(=O)NCCc1nc(-c2nc(C(=O)NCCCNCCCN3CCCCC3)cs2)cs1)C(C)O)C(OC1OC(CO)C(O)C(O)C1OC1OC(CO)C(O)C(OC(N)=O)C1O)c1cnc[nH]1 (stereo not shown) [Compound 30, 3-(3-piperidinopropyl)-aminopropylamino-bleomycin] | 0.39 |  |
| Cc1c(N)nc(C(CC(N)=O)NCC(N)C(N)=O)nc1C(=O)NC(C(=O)NC(C)C(O)C(C)C(=O)NC(C(=O)NCCc1nc(-c2nc(C(=O)NCCCNCCCN3CCOCC3)cs2)cs1)C(C)O)C(OC1OC(CO)C(O)C(O)C1OC1OC(CO)C(O)C(OC(N)=O)C1O)c1cnc[nH]1 (stereo not shown) [Compound 31, 3-(3-morpholinopropyl)-aminopropylamino-bleomycin] | 0.19 |  |
| Cc1c(N)nc(C(CC(N)=O)NCC(N)C(N)=O)nc1C(=O)NC(C(=O)NC(C)C(O)C(C)C(=O)NC(C(=O)NCCc1nc(-c2nc(C(=O)NCCCNCCCO)cs2)cs1)C(C)O)C(OC1OC(CO)C(O)C(O)C1OC1OC(CO)C(O)C(OC(N)=O)C1O)c1cnc[nH]1 (stereo not shown) [Compound 32, 3-(3-hydroxypropyl)-aminopropylamino-bleomycin] | 0.19 |  |
| Cc1c(N)nc(C(CC(N)=O)NCC(N)C(N)=O)nc1C(=O)NC(C(=O)NC(C)C(O)C(C)C(=O)NC(C(=O)NCCc1nc(-c2nc(C(=O)NCCCNC3CCCCC3)cs2)cs1)C(C)O)C(OC1OC(CO)C(O)C(O)C1OC1OC(CO)C(O)C(OC(N)=O)C1O)c1cnc[nH]1 (stereo not shown) [Compound 38, 3-cyclohexylaminopropylamino-bleomycin] | 0.39 |  |
| Cc1c(N)nc(C(CC(N)=O)NCC(N)C(N)=O)nc1C(=O)NC(C(=O)NC(C)C(O)C(C)C(=O)NC(C(=O)NCCc1nc(-c2nc(C(=O)NCCCNCCCNC3CCCCC3)cs2)cs1)C(C)O)C(OC1OC(CO)C(O)C(O)C1OC1OC(CO)C(O)C(OC(N)=O)C1O)c1cnc[nH]1 (stereo not shown) [Compound 39, 3-(3-cyclohexylaminopropyl)-aminopropylamino bleomycin] | 0.19 |  |
| Cc1c(N)nc(C(CC(N)=O)NCC(N)C(N)=O)nc1C(=O)NC(C(=O)NC(C)C(O)C(C)C(=O)NC(C(=O)NCCc1nc(-c2nc(C(=O)NCC3CCNCC3)cs2)cs1)C(C)O)C(OC1OC(CO)C(O)C(O)C1OC1OC(CO)C(O)C(OC(N)=O)C1O)c1cnc[nH]1 (stereo not shown) [Compound 41, 4-piperidylmethylamino-bleomycin] | 0.78 |  |
| Cc1c(N)nc(C(CC(N)=O)NCC(N)C(N)=O)nc1C(=O)NC(C(=O)NC(C)C(O)C(C)C(=O)NC(C(=O)NCCc1nc(-c2nc(C(=O)NCCc3cnc[nH]3)cs2)cs1)C(C)O)C(OC1OC(CO)C(O)C(O)C1OC1OC(CO)C(O)C(OC(N)=O)C1O)c1cnc[nH]1 (stereo not shown) [Compound 42, 2-(4-imidazolyl)-ethylamino-bleomycin] | 0.78 |  |
| CO[C@@]12[C@H](COC(N)=O)C3=C(C(=O)C(C)=C(N)C3=O)N1C[C@@H]1N[C@@H]12 [Mytomycin C, reference compound] | 0.39 |  |
